# Results: ChEMBL document CHEMBL3885881, “DrugMatrix”
# Species: Rattus norvegicus
# Test: DrugMatrix - Regimen: Daily Repeat
# Type: toxicity, organism-based, Sprague-Dawley
# Design: regimen Daily Repeat, gender Male, age 6-8 weeks
# Details: in vivo, po, route oral GAVAGE, […]; for ABSOLUTE BASOPHIL / ABSOLUTE EOSINOPHIL / ABSOLUTE LYMPHOCYTE / ABSOLUTE MONOCYTE / ABSOLUTE SEGMENTED NEUTROPHIL / BASOPHIL / EOSINOPHIL / ERYTHROCYTE COUNT / HEMATOCRIT / HEMOGLOBIN / LEUKOCYTE COUNT / LYMPHOCYTE / MEAN CORPUSCULAR HEMOGLOBIN / MEAN CORPUSCULAR HEMOGLOBIN CONCENTRATION / MEAN CORPUSCULAR VOLUME / MONOCYTE / NEUTROPHIL / NUCLEATED RED BLOOD CELLS / PLATELET COUNT: tissue Blood; for ALANINE AMINOTRANSFERASE / ALBUMIN / ALKALINE PHOSPHATASE / ASPARTATE AMINOTRANSFERASE / BLOOD UREA NITROGEN / CARBON DIOXIDE / CHLORIDE / CHOLESTEROL / CREATINE PHOSPHOKINASE / CREATININE / GLUCOSE / LACTATE DEHYDROGENASE / LIPASE / PHOSPHORUS / POTASSIUM / SODIUM / TOTAL BILIRUBIN / TOTAL PROTEIN / URIC ACID: tissue Plasma
# [1] = 24 mg/kg, 72 h, dose level Low, time 3 day
# [2] = 24 mg/kg, 120 h, dose level Low, time 5 day
# [3] = 93 mg/kg, 72 h, dose level High, time 3 day
# [4] = 93 mg/kg, 120 h, dose level High, time 5 day
structure (smiles),measurement,setting,value
Cc1cccc(Nc2ccccc2C(=O)O)c1C [MEFENAMIC ACID],ABSOLUTE BASOPHIL,[1],0 CELLS/uL
same,ABSOLUTE EOSINOPHIL,[1],120.67 CELLS/uL
same,ABSOLUTE LYMPHOCYTE,[1],16868.33 CELLS/uL
same,ABSOLUTE MONOCYTE,[1],133 CELLS/uL
same,ABSOLUTE SEGMENTED NEUTROPHIL,[1],1478 CELLS/uL
same,BASOPHIL,[1],0%
same,EOSINOPHIL,[1],0.67%
same,ERYTHROCYTE COUNT,[1],5.76 x10E6/uL
same,HEMATOCRIT,[1],38.77%
same,HEMOGLOBIN,[1],15.4 G/DL
same,LEUKOCYTE COUNT,[1],18.6 x10E3/uL
same,LYMPHOCYTE,[1],90.67%
same,MEAN CORPUSCULAR HEMOGLOBIN,[1],26.73 pg
same,MEAN CORPUSCULAR HEMOGLOBIN CONCENTRATION,[1],39.73 G/DL
same,MEAN CORPUSCULAR VOLUME,[1],67.37 fL
same,MONOCYTE,[1],0.67%
same,NEUTROPHIL,[1],8%
same,NUCLEATED RED BLOOD CELLS,[1],0 /100WBC
same,PLATELET COUNT,[1],1314.33 x10E3/uL
same,ALANINE AMINOTRANSFERASE,[1],80.67 u/L
same,ALBUMIN,[1],4.33 G/DL
same,ALKALINE PHOSPHATASE,[1],454.67 u/L
same,ASPARTATE AMINOTRANSFERASE,[1],99.67 u/L
same,BLOOD UREA NITROGEN,[1],12 mg/dL
same,CARBON DIOXIDE,[1],32 mmol/L
same,CHLORIDE,[1],102.33 MEQ/L
same,CHOLESTEROL,[1],71 mg/dL
same,CREATINE PHOSPHOKINASE,[1],725 u/L
same,CREATININE,[1],0.28 mg/dL
same,GLUCOSE,[1],165.67 mg/dL
same,LACTATE DEHYDROGENASE,[1],174.67 u/L
same,LIPASE,[1],13 u/L
same,PHOSPHORUS,[1],13.37 mg/dL
same,POTASSIUM,[1],6.54 MEQ/L
same,SODIUM,[1],146.73 MEQ/L
same,TOTAL BILIRUBIN,[1],0.2 mg/dL
same,TOTAL PROTEIN,[1],6 G/DL
same,URIC ACID,[1],1.83 mg/dL
same,ABSOLUTE BASOPHIL,[2],0 CELLS/uL
same,ABSOLUTE EOSINOPHIL,[2],0 CELLS/uL
same,ABSOLUTE LYMPHOCYTE,[2],17204 CELLS/uL
same,ABSOLUTE MONOCYTE,[2],113.33 CELLS/uL
same,ABSOLUTE SEGMENTED NEUTROPHIL,[2],1482.67 CELLS/uL
same,BASOPHIL,[2],0%
same,EOSINOPHIL,[2],0%
same,ERYTHROCYTE COUNT,[2],5.87 x10E6/uL
same,HEMATOCRIT,[2],36.9%
same,HEMOGLOBIN,[2],14.47 G/DL
same,LEUKOCYTE COUNT,[2],18.8 x10E3/uL
same,LYMPHOCYTE,[2],91.33%
same,MEAN CORPUSCULAR HEMOGLOBIN,[2],24.67 pg
same,MEAN CORPUSCULAR HEMOGLOBIN CONCENTRATION,[2],39.23 G/DL
same,MEAN CORPUSCULAR VOLUME,[2],62.87 fL
same,MONOCYTE,[2],0.67%
same,NEUTROPHIL,[2],8%
same,NUCLEATED RED BLOOD CELLS,[2],0.33 /100WBC
same,PLATELET COUNT,[2],1359 x10E3/uL
same,ALANINE AMINOTRANSFERASE,[2],61.67 u/L
same,ALBUMIN,[2],4.17 G/DL
same,ALKALINE PHOSPHATASE,[2],457.33 u/L
same,ASPARTATE AMINOTRANSFERASE,[2],87.33 u/L
same,BLOOD UREA NITROGEN,[2],13.33 mg/dL
same,CARBON DIOXIDE,[2],31.33 mmol/L
same,CHLORIDE,[2],101.67 MEQ/L
same,CHOLESTEROL,[2],67.67 mg/dL
same,CREATINE PHOSPHOKINASE,[2],379.33 u/L
same,CREATININE,[2],0.19 mg/dL
same,GLUCOSE,[2],144.67 mg/dL
same,LACTATE DEHYDROGENASE,[2],449.33 u/L
same,LIPASE,[2],11.33 u/L
same,PHOSPHORUS,[2],11.87 mg/dL
same,POTASSIUM,[2],6.54 MEQ/L
same,SODIUM,[2],145.2 MEQ/L
same,TOTAL BILIRUBIN,[2],0.2 mg/dL
same,TOTAL PROTEIN,[2],5.97 G/DL
same,URIC ACID,[2],1.43 mg/dL
same,ABSOLUTE BASOPHIL,[3],0 CELLS/uL
same,ABSOLUTE EOSINOPHIL,[3],46.33 CELLS/uL
same,ABSOLUTE LYMPHOCYTE,[3],12604 CELLS/uL
same,ABSOLUTE MONOCYTE,[3],348.67 CELLS/uL
same,ABSOLUTE SEGMENTED NEUTROPHIL,[3],1701 CELLS/uL
same,BASOPHIL,[3],0%
same,EOSINOPHIL,[3],0.33%
same,ERYTHROCYTE COUNT,[3],5.47 x10E6/uL
same,HEMATOCRIT,[3],35.43%
same,HEMOGLOBIN,[3],13.77 G/DL
same,LEUKOCYTE COUNT,[3],14.7 x10E3/uL
same,LYMPHOCYTE,[3],85.67%
same,MEAN CORPUSCULAR HEMOGLOBIN,[3],25.17 pg
same,MEAN CORPUSCULAR HEMOGLOBIN CONCENTRATION,[3],38.9 G/DL
same,MEAN CORPUSCULAR VOLUME,[3],64.77 fL
same,MONOCYTE,[3],2.33%
same,NEUTROPHIL,[3],11.67%
same,NUCLEATED RED BLOOD CELLS,[3],0.33 /100WBC
same,PLATELET COUNT,[3],1191.33 x10E3/uL
same,ALANINE AMINOTRANSFERASE,[3],64.33 u/L
same,ALBUMIN,[3],3.93 G/DL
same,ALKALINE PHOSPHATASE,[3],288.33 u/L
same,ASPARTATE AMINOTRANSFERASE,[3],83 u/L
same,BLOOD UREA NITROGEN,[3],11 mg/dL
same,CARBON DIOXIDE,[3],34 mmol/L
same,CHLORIDE,[3],101.67 MEQ/L
same,CHOLESTEROL,[3],82 mg/dL
same,CREATINE PHOSPHOKINASE,[3],546.33 u/L
same,CREATININE,[3],0.16 mg/dL
same,GLUCOSE,[3],149 mg/dL
same,LACTATE DEHYDROGENASE,[3],123 u/L
same,LIPASE,[3],11 u/L
same,PHOSPHORUS,[3],12.4 mg/dL
same,POTASSIUM,[3],6.65 MEQ/L
same,SODIUM,[3],145.07 MEQ/L
same,TOTAL BILIRUBIN,[3],0.17 mg/dL
same,TOTAL PROTEIN,[3],5.63 G/DL
same,URIC ACID,[3],1.57 mg/dL
same,ABSOLUTE BASOPHIL,[4],0 CELLS/uL
same,ABSOLUTE EOSINOPHIL,[4],0 CELLS/uL
same,ABSOLUTE LYMPHOCYTE,[4],16873.67 CELLS/uL
same,ABSOLUTE MONOCYTE,[4],0 CELLS/uL
same,ABSOLUTE SEGMENTED NEUTROPHIL,[4],1459.67 CELLS/uL
same,BASOPHIL,[4],0%
same,EOSINOPHIL,[4],0%
same,ERYTHROCYTE COUNT,[4],5.73 x10E6/uL
same,HEMATOCRIT,[4],35.9%
same,HEMOGLOBIN,[4],14.23 G/DL
same,LEUKOCYTE COUNT,[4],18.33 x10E3/uL
same,LYMPHOCYTE,[4],92%
same,MEAN CORPUSCULAR HEMOGLOBIN,[4],24.87 pg
same,MEAN CORPUSCULAR HEMOGLOBIN CONCENTRATION,[4],39.63 G/DL
same,MEAN CORPUSCULAR VOLUME,[4],62.73 fL
same,MONOCYTE,[4],0%
same,NEUTROPHIL,[4],8%
same,NUCLEATED RED BLOOD CELLS,[4],0.33 /100WBC
same,PLATELET COUNT,[4],1419 x10E3/uL
same,ALANINE AMINOTRANSFERASE,[4],66.67 u/L
same,ALBUMIN,[4],4.3 G/DL
same,ALKALINE PHOSPHATASE,[4],382.67 u/L
same,ASPARTATE AMINOTRANSFERASE,[4],85 u/L
same,BLOOD UREA NITROGEN,[4],11.67 mg/dL
same,CARBON DIOXIDE,[4],31.67 mmol/L
same,CHLORIDE,[4],101.33 MEQ/L
same,CHOLESTEROL,[4],76.67 mg/dL
same,CREATINE PHOSPHOKINASE,[4],196.33 u/L
same,CREATININE,[4],0.14 mg/dL
same,GLUCOSE,[4],143 mg/dL
same,LACTATE DEHYDROGENASE,[4],166.33 u/L
same,LIPASE,[4],11.33 u/L
same,PHOSPHORUS,[4],12.5 mg/dL
same,POTASSIUM,[4],6.98 MEQ/L
same,SODIUM,[4],144.2 MEQ/L
same,TOTAL BILIRUBIN,[4],0.17 mg/dL
same,TOTAL PROTEIN,[4],6.23 G/DL
same,URIC ACID,[4],2.33 mg/dL
